From patent US11339168B2, “Crystalline forms of 6-(6-aminopyrazin-2-yl)-N-(4-(4-(oxetan-3-yl)piperazin-1-yl)phenyl)imidazo[1,2-a]pyrazin-8-amine as Syk inhibitors” (Kronos Bio, Inc., priority 2019, dated 2022)
Counter-ions that a name gives are not always drawn.

Test: Hygroscopicity by dynamic vapor sorption (DVS)
Assay type: physicochemical
Settings: for water absorbed (DVS): 25° C. and 95% RH; for hygroscopicity (DVS analysis), in words: 25° C.
Experimental: Hygroscopicity was studied using dynamic vapor sorption (DVS, TA Q5000 SA, TA Instruments, New Castle, Del. or DVS, DVS Intrinsic, Surface Measurement Systems, London, UK). A sample (2-20 mg) was placed in an aluminum DVS pan and loaded on the sample side of the twin pan balance. The water sorption and desorption were studied as a function of relative humidity (RH) at 25° C. In 10% RH increments, the relative humidity was increased from 5% RH to 95% RH and then decreased back to 5%. […] Data analysis was performed using Universal Analysis 2000 Version 4.7A (TA Instruments, New Castle, Del.) for TA DVS runs and Microsoft Excel for SMS DVS runs.

[1] = for Mono-BSA Form I up to 85% RH

Compound | water absorbed (DVS) | hygroscopicity (DVS analysis), in words [1] | water uptake (DVS) (90% RH at 25° C.) | water uptake (DVS) (85% RH at 25° C.) | hygroscopicity (DVS analysis), in words (above 85% RH, led to deliquescence)
Nc1cncc(-c2cn3ccnc3c(Nc3ccc(N4CCN(C5COC5)CC4)cc3)n2)n1 [Compound I Form I, 6-(6-aminopyrazin-2-yl)-N-(4-(4-(oxetan-3-yl)piperazin-1-yl)phenyl)imidazo[1,2-a]pyrazin-8-amine] | about 0.8 wt. % | slightly hygroscopic |  |  | 
Nc1cncc(-c2cn3ccnc3c(Nc3ccc(N4CCN(C5COC5)CC4)cc3)n2)n1 [Compound I Mono-HCl salt Form II, 6-(6-aminopyrazin-2-yl)-N-(4-(4-(oxetan-3-yl)piperazin-1-yl)phenyl)imidazo[1,2-a]pyrazin-8-amine] |  | very hygroscopic | about 16 wt. % |  | 
Nc1cncc(-c2cn3ccnc3c(Nc3ccc(N4CCN(C5COC5)CC4)cc3)n2)n1 [Compound I Form V, 6-(6-aminopyrazin-2-yl)-N-(4-(4-(oxetan-3-yl)piperazin-1-yl)phenyl)imidazo[1,2-a]pyrazin-8-amine] | about 0.5 wt. % | slightly hygroscopic |  |  | 
Nc1cncc(-c2cn3ccnc3c(Nc3ccc(N4CCN(C5COC5)CC4)cc3)n2)n1 [Compound I Form II, 6-(6-aminopyrazin-2-yl)-N-(4-(4-(oxetan-3-yl)piperazin-1-yl)phenyl)imidazo[1,2-a]pyrazin-8-amine] | about 2 wt. % | slightly hygroscopic |  |  | 
Nc1cncc(-c2cn3ccnc3c(Nc3ccc(N4CCN(C5COC5)CC4)cc3)n2)n1 [Compound I Hemi-Succinate Form I, 6-(6-aminopyrazin-2-yl)-N-(4-(4-(oxetan-3-yl)piperazin-1-yl)phenyl)imidazo[1,2-a]pyrazin-8-amine] |  | slightly hygroscopic | about 0.4 wt. % |  | 
Nc1cncc(-c2cn3ccnc3c(Nc3ccc(N4CCN(C5COC5)CC4)cc3)n2)n1 [Compound I Sesqui-Adipate Form I, 6-(6-aminopyrazin-2-yl)-N-(4-(4-(oxetan-3-yl)piperazin-1-yl)phenyl)imidazo[1,2-a]pyrazin-8-amine] |  | moderately hygroscopic | about 2.1 wt. % |  | 
Nc1cncc(-c2cn3ccnc3c(Nc3ccc(N4CCN(C5COC5)CC4)cc3)n2)n1 [Compound I Mono-BSA Form I, 6-(6-aminopyrazin-2-yl)-N-(4-(4-(oxetan-3-yl)piperazin-1-yl)phenyl)imidazo[1,2-a]pyrazin-8-amine] | > 15 wt. % | slightly hygroscopic |  | about 1.5 wt. % | very hygroscopic
